Experiments:
Type in all cases: in vivo
[1] = system: barnyardgrass (Echinochloa crus-galli); assay: Test G Post-Emergence Protocol; conditions: Echinochloa crus-galli, post-emergence, 312 h; for pest or weed control at 15.625 g/ha: 15.625 g ai/ha, evaluated after 13 days (100=total damage to plant; 0=no damage to plant), read-out: Barnyardgrass damage rating; for pest or weed control at 62.5 g/ha: 62.5 g ai/ha, read-out: Barnyardgrass damage rating (100=total damage to plant; 0=no damage to plant); for pest or weed control at 62.5 g/ha / pest or weed control at 250 g/ha: evaluated after 13 days; for pest or weed control at 250 g/ha: 250 g ai/ha, read-out: damage to plant, Barnyardgrass (100=total damage to plant; 0=no damage to plant)
In short: (§1)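 Seedlings grown 8 days in soil in a glasshouse (24/16 °C day/night, 14 h light, 65% humidity) were sprayed post-emergence with compound in acetone/water 50:50 plus 0.5% Tween 20 at 15.625, 62.5 or 250 g/ha. Damage was scored after 13 days on a 0–100 scale (100 = total damage).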

[2] = system: ivy-leaved morning glory (Ipomoea hederacea); assay: Test G Post-Emergence Protocol; conditions: Ipomoea, post-emergence, 312 h; for pest or weed control at 15.625 g/ha: 15.625 g ai/ha, evaluated after 13 days (100=total damage to plant; 0=no damage to plant), read-out: Morningglory, Ivy-leaved damage rating; for pest or weed control at 62.5 g/ha: 62.5 g ai/ha, read-out: Morningglory, Ivy-leaved damage rating (100=total damage to plant; 0=no damage to plant); for pest or weed control at 62.5 g/ha / pest or weed control at 250 g/ha: evaluated after 13 days; for pest or weed control at 250 g/ha: 250 g ai/ha, read-out: damage to plant, Morningglory, Ivy-leaved (100=total damage to plant; 0=no damage to plant)
In short: as §1

[3] = system: redroot pigweed (Amaranthus retroflexus); assay: Test G Post-Emergence Protocol; conditions: Amaranthus retroflexus, post-emergence, 312 h; for pest or weed control at 15.625 g/ha: 15.625 g ai/ha, evaluated after 13 days (100=total damage to plant; 0=no damage to plant), read-out: Pigweed, Redroot damage rating; for pest or weed control at 62.5 g/ha: 62.5 g ai/ha, read-out: Pigweed, Redroot damage rating (100=total damage to plant; 0=no damage to plant); for pest or weed control at 62.5 g/ha / pest or weed control at 250 g/ha: evaluated after 13 days; for pest or weed control at 250 g/ha: 250 g ai/ha, read-out: damage to plant, Pigweed, Redroot (100=total damage to plant; 0=no damage to plant)
In short: as §1

[4] = system: giant foxtail (Setaria faberi); assay: Test G Post-Emergence Protocol; conditions: Setaria faberi, post-emergence, 312 h; for pest or weed control at 15.625 g/ha: 15.625 g ai/ha, evaluated after 13 days (100=total damage to plant; 0=no damage to plant), read-out: Foxtail, Giant damage rating; for pest or weed control at 62.5 g/ha: 62.5 g ai/ha, read-out: Foxtail, Giant damage rating (100=total damage to plant; 0=no damage to plant); for pest or weed control at 62.5 g/ha / pest or weed control at 250 g/ha: evaluated after 13 days; for pest or weed control at 250 g/ha: 250 g ai/ha, read-out: damage to plant, Foxtail, Giant (100=total damage to plant; 0=no damage to plant)
In short: as §1

corn (Zea mays) [5] = assay: Test G Post-Emergence Protocol; conditions: Zea mays, post-emergence, 312 h; for plant injury at 15.625 g/ha: 15.625 g ai/ha, evaluated after 13 days (100=total damage to plant; 0=no damage to plant), read-out: Corn damage rating; for plant injury at 62.5 g/ha: 62.5 g ai/ha, read-out: Corn damage rating (100=total damage to plant; 0=no damage to plant); for plant injury at 62.5 g/ha / plant injury at 250 g/ha: evaluated after 13 days; for plant injury at 250 g/ha: 250 g ai/ha, read-out: damage to plant, Corn (100=total damage to plant; 0=no damage to plant)
In short: as §1

[6] = system: velvetleaf (Abutilon theophrasti); assay: Test G Post-Emergence Protocol; conditions: Abutilon theophrasti, post-emergence, 312 h; for pest or weed control at 15.625 g/ha: 15.625 g ai/ha, evaluated after 13 days (100=total damage to plant; 0=no damage to plant), read-out: Velvetleaf damage rating; for pest or weed control at 62.5 g/ha: 62.5 g ai/ha, read-out: Velvetleaf damage rating (100=total damage to plant; 0=no damage to plant); for pest or weed control at 62.5 g/ha / pest or weed control at 250 g/ha: evaluated after 13 days; for pest or weed control at 250 g/ha: 250 g ai/ha, read-out: damage to plant, Velvetleaf (100=total damage to plant; 0=no damage to plant)
In short: as §1

[7] = system: barnyardgrass (Echinochloa crus-galli); assay: Test G Pre-Emergence Protocol; conditions: Echinochloa crus-galli, pre-emergence, 312 h, evaluated after 13 days; for pest or weed control at 15.625 g/ha: 15.625 g ai/ha, read-out: Barnyard grass damage rating (100=total damage to plant; 0=no damage to plant); for pest or weed control at 62.5 g/ha: 62.5 g ai/ha, 100=total damage to plant, 0=no damage to plant, read-out: plant damage rating, Barnyardgrass; for pest or weed control at 250 g/ha: 250 g ai/ha, read-out: Barnyardgrass damage rating (100=total damage to plant; 0=no damage to plant)
In short: (§2)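 Scores are visual damage ratings from 0 (no damage) to 100 (total plant kill), taken 13 days after treatment. Compound was sprayed one day post-sowing at 15.625, 62.5 or 250 g/ha in 50:50 acetone/water with 0.5% Tween 20.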

[8] = system: ivy-leaved morning glory (Ipomoea hederacea); assay: Test G Pre-Emergence Protocol; conditions: Ipomoea, pre-emergence, 312 h, evaluated after 13 days; for pest or weed control at 15.625 g/ha: 15.625 g ai/ha, read-out: Morning-glory, Ivy-leaved damage rating (100=total damage to plant; 0=no damage to plant); for pest or weed control at 250 g/ha: 250 g ai/ha, read-out: Morningglory, Ivy-leaved damage rating (100=total damage to plant; 0=no damage to plant)
In short: as §2

[9] = system: redroot pigweed (Amaranthus retroflexus); assay: Test G Pre-Emergence Protocol; conditions: Amaranthus retroflexus, pre-emergence, 312 h, evaluated after 13 days; for pest or weed control at 15.625 g/ha: 15.625 g ai/ha; for pest or weed control at 15.625 g/ha / pest or weed control at 250 g/ha: read-out: Pigweed, Redroot damage rating (100=total damage to plant; 0=no damage to plant); for pest or weed control at 62.5 g/ha: 62.5 g ai/ha, 100=total damage to plant, 0=no damage to plant, read-out: plant damage rating, Pigweed, Redroot; for pest or weed control at 250 g/ha: 250 g ai/ha
In short: as §2

[10] = system: giant foxtail (Setaria faberi); assay: Test G Pre-Emergence Protocol; conditions: Setaria faberi, pre-emergence, 312 h, evaluated after 13 days; for pest or weed control at 15.625 g/ha: 15.625 g ai/ha; for pest or weed control at 15.625 g/ha / pest or weed control at 250 g/ha: read-out: Foxtail, Giant damage rating (100=total damage to plant; 0=no damage to plant); for pest or weed control at 62.5 g/ha: 62.5 g ai/ha, 100=total damage to plant, 0=no damage to plant, read-out: plant damage rating, Foxtail, Giant; for pest or weed control at 250 g/ha: 250 g ai/ha
In short: as §2

corn (Zea mays) [11] = assay: Test G Pre-Emergence Protocol; conditions: Zea mays, pre-emergence, 312 h, evaluated after 13 days; for plant injury at 15.625 g/ha: 15.625 g ai/ha; for plant injury at 15.625 g/ha / plant injury at 250 g/ha: read-out: Corn damage rating (100=total damage to plant; 0=no damage to plant); for plant injury at 62.5 g/ha: 62.5 g ai/ha, 100=total damage to plant, 0=no damage to plant, read-out: plant damage rating, Corn; for plant injury at 250 g/ha: 250 g ai/ha
In short: as §2

[12] = system: velvetleaf (Abutilon theophrasti); assay: Test G Pre-Emergence Protocol; conditions: Abutilon theophrasti, pre-emergence, 312 h, evaluated after 13 days; for pest or weed control at 15.625 g/ha: 15.625 g ai/ha; for pest or weed control at 15.625 g/ha / pest or weed control at 250 g/ha: read-out: Velvetleaf damage rating (100=total damage to plant; 0=no damage to plant); for pest or weed control at 62.5 g/ha: 62.5 g ai/ha, 100=total damage to plant, 0=no damage to plant, read-out: plant damage rating, Velvetleaf; for pest or weed control at 250 g/ha: 250 g ai/ha
In short: as §2

Compound | pest or weed control at 15.625 g/ha [1] | pest or weed control at 62.5 g/ha [1] | pest or weed control at 250 g/ha [1] | pest or weed control at 15.625 g/ha [2] | pest or weed control at 62.5 g/ha [2] | pest or weed control at 250 g/ha [2] | pest or weed control at 15.625 g/ha [3] | pest or weed control at 62.5 g/ha [3] | pest or weed control at 250 g/ha [3] | pest or weed control at 15.625 g/ha [4] | pest or weed control at 62.5 g/ha [4] | pest or weed control at 250 g/ha [4] | plant injury at 15.625 g/ha (corn (Zea mays) [5]) | plant injury at 62.5 g/ha (corn (Zea mays) [5]) | plant injury at 250 g/ha (corn (Zea mays) [5]) | pest or weed control at 15.625 g/ha [6] | pest or weed control at 62.5 g/ha [6] | pest or weed control at 250 g/ha [6] | pest or weed control at 15.625 g/ha [7] | pest or weed control at 62.5 g/ha [7] | also measured
CN1C[C@H](c2ccc(F)c(OCC(F)(F)F)c2)[C@@H](C(=O)Nc2ccccc2F)C1=O (racemic) [Compound 1456] | 10% | 10% | 20% | 30% | 30% | 20% | 0% | 30% | 40% | 50% | 60% | 70% | 10% | 20% | 60% | 0% | 20% | 20% | 20% | 60% | pest or weed control at 250 g/ha [7]: 80%; pest or weed control at 15.625 g/ha [8]: 0%; pest or weed control at 250 g/ha [8]: 40%; pest or weed control at 15.625 g/ha [9]: 0%; pest or weed control at 62.5 g/ha [9]: 0%; pest or weed control at 250 g/ha [9]: 90%; pest or weed control at 15.625 g/ha [10]: 60%; pest or weed control at 62.5 g/ha [10]: 80%; pest or weed control at 250 g/ha [10]: 90%; plant injury at 15.625 g/ha (corn (Zea mays) [11]): 0%; plant injury at 62.5 g/ha (corn (Zea mays) [11]): 0%; plant injury at 250 g/ha (corn (Zea mays) [11]): 40%; pest or weed control at 15.625 g/ha [12]: 0%; pest or weed control at 62.5 g/ha [12]: 0%; pest or weed control at 250 g/ha [12]: 40%
CN1C[C@@H](c2ccc(Cl)nc2)[C@H](C(=O)Nc2cccc(F)c2F)C1=O (racemic) [Compound 1462] | 0% | 20% | 30% | 0% | 20% | 10% | 0% | 0% | 0% | 0% | 50% | 70% | 0% | 0% | 10% | 0% | 0% | 0% | 20% | 50% | pest or weed control at 250 g/ha [7]: 80%; pest or weed control at 15.625 g/ha [8]: 0%; pest or weed control at 62.5 g/ha ([8]; 62.5 g ai/ha, 100=total damage to plant, 0=no damage to plant, read-out: plant damage rating, Morningglory, Ivy-leaved): 0%; pest or weed control at 250 g/ha [8]: 50%; pest or weed control at 15.625 g/ha [9]: 0%; pest or weed control at 62.5 g/ha [9]: 0%; pest or weed control at 250 g/ha [9]: 0%; pest or weed control at 15.625 g/ha [10]: 0%; pest or weed control at 62.5 g/ha [10]: 70%; pest or weed control at 250 g/ha [10]: 80%; plant injury at 15.625 g/ha (corn (Zea mays) [11]): 0%; plant injury at 62.5 g/ha (corn (Zea mays) [11]): 0%; plant injury at 250 g/ha (corn (Zea mays) [11]): 0%; pest or weed control at 15.625 g/ha [12]: 0%; pest or weed control at 62.5 g/ha [12]: 0%; pest or weed control at 250 g/ha [12]: 0%
